# Tests used:
# [1] = system: TRAF2; experiment: FLAG-TIFA immunoprecipitation and immunoblot for TRAF2; type: cell-based, human; details: HBP treatment; FIG. 16a
# Method: FLAG-TIFA was immunoprecipitated from Jurkat cells using FLAG M2 agarose beads (Sigma) as described previously (Chen and Gingras, 2007). Briefly, cells were lysed in 50 mM Hepes-KOH pH 8.0, 100 mM KCl, 2 mM EDTA, 0.1% NP40, 10% glycerol. Soluble cell lysates were pre-cleared for 2 hr with mouse IgG agarose (Sigma) and immunoprecipitated overnight at 4° C. Proteins eluted using 0.5 M NH4OH pH 11 (for mass-spectrometry), or 3× FLAG-peptide (Sigma) (immunoblot analysis). TRAF6 was immunoprecipitated from Jurkat cell lysates using rabbit anti-TRAF6 (sc-72201; Santa cruz) conjugated to protein A/G PLUS-agarose (Santa cruz) and eluted in sample buffer. Whole cell lysates or immunoprecipitation eluates were immunoblotted with the following antibodies: M2 anti-FLAG (Sigma), rabbit anti-FLAG (Sigma), mouse anti-TRAF6 (sc-8409; Santa Cruz), rabbit anti-TRAF2 (sc-876), mouse anti-ubiquitin (sc-8017; Santa cruz), mouse anti-beta actin (Sigma). For phosphopeptide analysis, FLAG-TIFA was excised from the gel, subject to in-gel trypic digestion, followed by treatment with cyanogen bromide (Sigma) in 70% TFA and analyzed by LC/MS/MS. Data were analyzed by Scaffold PTM (Proteome).
# [2] = system: NF-κB dependent genes in Jurkat T cells; experiment: Microarray, qRT-PCR and NF-κB subunit ELISA in Jurkat T cells; type: cell-based, human; details: compared with flagellin or TNFα, FIG. 2b,c
# Method: RNA was isolated using an RNeasy kit (Qiagen) per manufacturers' protocol. cDNA was synthesized using the iScript cDNA synthesis kit (Bio-Rad) and treated with TURBO DNase (Life Technologies). cDNA was amplified using SsoAdvanced SYBR Green (Bio-Rad) using a C1000 thermal cycler (Bio-Rad). Target genes were amplified using the following primers: […]
# Relative expression was calculated using the 2^−ΔΔCT method following normalization of target gene abundance to GAPDH. Quantitative measurements of cytokines were performed using ELISA kits form R&D Systems (KC, IL-23, IFN-β) or BD Biosciences (IL-1β, IL-8, IL-6, IL-12p70, TNF-α). Nuclear extracts were prepared from Jurkat T cells and NF-κB subunit binding was determined using the TransAM® Transcription Factor ELISA (Active Motif). Microarray
# Two clonal populations of Jurkat cells were stimulated for 2 hr with purified HBP-containing supernatants, or supernatants from M. catarrhalis. RNA was extracted using RNeasy (Qiagen), labeled using Illumina TotalPrep RNA Amplification kit (Ambion) and analyzed on a human HT-12 v4.0 Beadchip (Illumina). Data normalization and analysis were provided as a service by the Bioinformatics Department of the University Health Network (UHN) Micro array Centre, Toronto, ON. Data was analyzed using Genespring v11.0.1. […]
# [3] = target: T1, TIFA (Homo sapiens, UniProt Q96CG3); experiment: Confocal microscopy of FLAG-TIFA with TRAF6 or Lamp2; type: cell-based
# T1 construct: expressed in transfected cells; endogenous TIFA knocked down with a 3' UTR shRNA
# T1 sequence (Q96CG3 1-184): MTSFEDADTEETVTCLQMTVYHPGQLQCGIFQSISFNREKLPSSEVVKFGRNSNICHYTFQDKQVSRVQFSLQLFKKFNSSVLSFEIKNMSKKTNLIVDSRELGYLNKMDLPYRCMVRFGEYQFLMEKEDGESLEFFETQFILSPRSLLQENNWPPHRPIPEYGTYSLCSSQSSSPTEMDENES
# Method: For visualization of FLAG-TIFA and TRAF6, cells were stained overnight at 4° C. with Alexa Fluor-488 conjugated rabbit anti-FLAG (Cell Signaling) and mouse anti-TRAF6 (sc-8409; Santa Cruz), followed by 1 hour with Alexa Fluor-594 conjugated anti mouse (Life Technologies). For visualization of FLAG-TIFA and Lamp2, cells were stained overnight at 4° C. with mouse anti-FLAG (M2; Sigma) and rabbit anti-Lamp2 (ab37024; Abcam), followed by 1 hour with Alexa Fluor-488 conjugated anti-mouse (Life Technologies) and Alexa Fluor-594 conjugated anti-rabbit (Life Technologies). Slides were visualized using an LSM510 (Carl Zeiss) confocal microscope. For analysis, images were processed using ImageJ software
# [4] = system: NF-κB; experiment: NF-κB luciferase reporter assay in 293T cells; type: cell-based, human
# Method: 293T were maintained in DMEM supplemented with 10% FBS, 1% glutamax, and 1% penicillin streptomycin. Jurkat 1G5 cells contain a stably-integrated LTR-luciferase reporter gene (Aguilar-Cordova et al., 1994), and were maintained in RPMI supplemented with 10% FBS and 1% glutamax. THP-1 cells were maintained in RPMI supplemented with 10% FBS and 1% glutamax and differentiated to macrophages with 50 ng/ml PMA for 48 hr, followed by a 48 hr rest period prior to stimulation. To measure LTR-driven luciferase, 1G5 cells were lysed and luminescence determined using the Luciferase Assay kit (Promega) according to manufacturer's instructions. Results are expressed as fold change compared to untreated. 293T cells were transfected in 96 well plates with 90 ng ELAM firefly luciferase reporter plasmid (Chow et al., 1999) and 10 ng pRL-TK Renilla plasmid using TransiT LTI (Mirus). 18 hours later cells were treated for 6 hours and luciferase activity determined using the Dual-Glo Luciferase Assay System (Promega). Results are expressed as fold increase relative to transfected, mock treated cells following normalization to Renilla luciferase. Digitonin permeabilization assays were done as described previously (Girardin et al., 2003) with the following modifications: 1G5 cells were stimulated with purified HBP supernatants, or 10 μg/ml flagellin (Invivogen) for 20 minutes at 4° C. in the absence or presence of 2 μg/ml digitonin (Sigma). […]
# 293T were maintained in DMEM supplemented with 10% FBS, 1% glutamax, and 1% penicillin streptomycin. […] To measure LTR-driven luciferase, 1G5 cells were lysed and luminescence determined using the Luciferase Assay kit (Promega) according to manufacturers instructions. Results are expressed as fold change compared to untreated. […] 18 hours later cells were treated for 6 hours and luciferase activity determined using the Dual-Glo Luciferase Assay System (Promega). Results are expressed as fold increase relative to transfected, mock treated cells following normalization to Renilla luciferase.
smiles,measurement,setting,value
"O=P(O)(O)OC[C@@H](O)[C@H]1OC(OP(=O)(O)O)[C@@H](O)[C@@H](O)[C@@H]1O (stereo partly drawn) [HBP, D-glycerol-D-manno-heptose-1,7-bisphosphate]",TIFA interaction with TRAF2,[1],No interaction was observed
same,Kinetics of NF-κB activation and pro-inflammatory transcriptional response,[2],"slower, and persisted longer"
same,TIFA co-localization with TRAF6,"[3]; 293T cells, 3 hr, FIG. 16b",co-localized with TRAF6 in distinct foci
same,Formation of TIFA aggregates co-localized with Lamp2,"[3]; 293 cells, 4 hr, FIG. 21",induced the formation of large TIFA aggregates
same,NF-κB activation after incubation of the product with phosphatase GmhB,[4]; FIG. 1e,decreased NF-κB activation
same,NF-κB activation,"[4]; product of in vitro reaction of S7P with GmhA and HldA, FIG. 1d",potently stimulated NF-κB
